Our source for the refractive index and mass density values is the NIST ThermoML archive (doi:10.1021/je600519p).

A short description of data set [1]: refractive index (Na D-line) (dimensionless). The following applies: 293.15 K; 101.33 kPa; Liquid.
For data set [2] the following is noted: 293.15 K; 101.33 kPa; Liquid.

± gives the expanded uncertainty stated by the source.

What is called refractive index is the speed of light in vacuum divided by its phase velocity in the sample. One may read the mass density as the mass of a sample divided by its volume. For `CC(=O)c1ccccc1` [acetophenone], the refractive index in data set [1] is listed as 1.5336 ± 0.0013. For the same molecule, in data set [2], the mass density is listed as 1027.93 ± 0.46 kg/m3.
On to `CCOC(=O)OCC` [diethyl carbonate], for which the refractive index in data set [1] is on record as 1.3845 ± 0.0012. In data set [2], the mass density is recorded as 974.65 ± 0.29 kg/m3.
For the molecule `CCCCCCO` [hexan-1-ol], the refractive index in data set [1] is given as 1.4178 ± 0.0013. Also, the mass density in data set [2] is given as 818.84 ± 0.75 kg/m3.
